From BindingDB's records for doi:10.1021/acs.jmedchem.6b01196 (National Institute of Biological Sciences, 2017)

assay: Inhibition of RIP1 in mouse L929 cells assessed as reduction in TNFalpha/z-VAD-FMK-induced necrosis after 6 hrs by Cell Titer-Glo luminescent cell viability assay

SMILES	EC50 [nM]
CCC(C)(C)C(=O)N(O)Cc1ccccc1	27

assay: Inhibition of RIP1 in human HT-29 cells assessed as reduction in TNFalpha/z-VAD-FMK-induced necrosis after 24 hrs by Cell Titer-Glo luminescent cell viability assay

SMILES	EC50 [nM]
CN(Cc1cc(F)cc(F)c1F)C(=O)C1(C(F)(F)F)CCCC1	1230
CCC(C)(C)C(=O)N(O)Cc1ccc(F)c(F)c1F	262
CCC(C)(C)C(=O)N(C)Cc1ccc(C)s1	378
CCC(C)(C)C(=O)N(O)Cc1cc(F)cc(F)c1F	74
CCC(C)(C)C(=O)N(C)Cc1cc(F)ccc1F	36
CN(Cc1cc(F)cc(F)c1F)C(=O)C1(C)CC1	> 10000
CCC(C)(C)C(=O)NCc1ccccc1	4100
CCC(C)(C)C(=O)NC1(c2ccccc2)CC1	> 5000
CCC(C)(C)C(=O)N(C)Cc1ccc(F)cc1F	627
CCC(C)(C)C(=O)NC(C)c1ccccc1 (stereo not given)	> 10000
CN(Cc1cc(F)cc(F)c1F)C(=O)C(C)(C)C	98
CCC(C)(C)C(=O)N(C)Cc1cccc(Br)c1	1230
CCC(C)(C)C(=O)N(C)Cc1ccncc1	> 10000
CCC(C)(C)C(=O)N(C)Cc1ccccc1	457
CCC(C)(C)C(=O)N(C)Cc1c(F)cc(F)cc1F	1250
CCC(C)(C)C(=O)N(O)Cc1ccc(F)cc1F	198
CCC(C)(C)C(=O)N(C)Cc1ccco1	628
CCC(C)(C)C(=O)N(C)Cc1cccc(F)c1	72
CCC(C)(C)C(=O)NCc1ccccc1F	898
CC1CCCCN1C(=O)N(C)Cc1cc(F)cc(F)c1F (stereo not given)	> 3000
CCC(C)(C)C(=O)N(C)C(C)(C)c1ccccc1	> 10000
CCC(C)(C)C(=O)NC(C)(C)c1ccccc1	> 10000
CCC(C)(C)C(=O)N(O)Cc1ccccc1	28
CC(C)N(C(=O)N(C)Cc1cc(F)cc(F)c1F)C(C)C	> 3000

SMILES	EC50 [nM]
CCC(C)(C)C(=O)N(O)Cc1cc(F)c(F)c(F)c1	49
CCC(C)(C)C(=O)N(C)C(CO)c1ccccc1 (stereo not given)	> 10000
CCC(C)(C)C(=O)N(C)Cc1cccnc1	1740
CCC(C)(C)C(=O)N(O)Cc1ccc(F)c(F)c1	56
CCC(C)(C)C(=O)N(C)Cc1cnc(C)s1	> 10000
CCN(Cc1ccccc1F)C(=O)C(C)(C)CC	> 10000
CCC(C)(C)C(=O)N(O)Cc1ccc(F)cc1	64
CCC(C)(C)C(=O)N(C)Cc1cccs1	221
CCC(C)(C)C(=O)NC(CO)c1ccccc1 (stereo not given)	1080
CN(Cc1cc(F)cc(F)c1F)C(=O)C1CCC1	8240
CCC(C)(C)C(=O)N(C)Cc1ccc(F)cc1	815
CC1CCCC(C)N1C(=O)N(C)Cc1cc(F)cc(F)c1F (stereo not given)	1530
CN(Cc1cc(F)cc(F)c1F)C(=O)C1(C)CCCCC1	490
CCC(C)(C)C(=O)NCc1cccc(Br)c1	> 10000
CCC(C)(C)C(=O)N(C)Cc1sccc1C	2530
CCC(C)(C)C(=O)N(C)Cc1cc(C)c(C)s1	1310
CCC(C)(C)C(=O)N(C)Cc1cccc(O)c1	> 3000
CC(C)N(C)C(=O)N(C)Cc1cc(F)cc(F)c1F	> 3000
CN(Cc1cc(F)cc(F)c1F)C(=O)C(C)(C)CO	> 3000
COC(C)(C)C(=O)N(C)Cc1cc(F)cc(F)c1F	> 10000
CCC(C)(C)C(=O)N(C)Cc1ccccc1Cl	> 10000
CCC(C)(C)C(=O)N(C)Cc1ccn(C)n1	> 10000
CN(Cc1cc(F)cc(F)c1F)C(=O)C1(C(F)(F)F)CCC1	656
CCC(C)(C)C(=O)N(C)C(C)c1ccccc1 (stereo not given)	> 10000

assay: as above; remark: another data set of the same source

SMILES	EC50 [nM]
CCC(C)(C)C(=O)N(C)Cc1cccc(Cl)c1	628
CCC(C)(C)C(=O)N(C)Cc1cc(F)cc(F)c1F	12
CCC(C)(C)C(=O)N(C)Cc1ccncc1F	> 10000
CCC(C)(C)C(=O)NCc1ccccc1Br	8560
CCC(C)(C)C(=O)N(C)Cc1ccccc1F	125
CCC(C)(C)C(=O)N(C)Cc1cccc(F)c1F	58
